Laboratory results from PMC5537305, “Photo-enhanced Aqueous Solubilization of an Azo-compound” (Scientific Reports, 2017).
Converted amounts (≈) assume the structure as drawn.

Assays:
Format in all cases: physicochemical
[1] = Aqueous solubility of stilbenes 1 and 2 in phosphate buffer; details: for solubility at 24 h: 20 °C, aqueous buffer, thermodynamic from solid, 20 °C for 24 h
Source text: First, we synthesized cis- and trans-stilbene analogs 1 and 2 as models for cis- and trans-azobenzenes, respectively (Fig. 1, Fig. S1). As expected, cis-1 was 14 times more soluble than trans-2 in phosphate buffer (Table S1). To confirm the putative mechanism of the higher solubility of the cis isomer, the melting point and LogP ow were examined as parameters of intermolecular interaction and hydrophobicity, respectively. The order of lower melting points (cis < trans) was the same as the order of higher aqueous solubility (cis > trans). As for hydrophobicity, the LogP ow values of 1 and 2 were almost the same. […] Therefore, the bent and twisted structure of cis-azobenzenes may result in greater aqueous solubility.
Table S1. Physicochemical properties of stilbenes 1 and 2.
Compound (µg/mL) Melting point (º C) LogPow λmax (nm)
Table S2. Photoinduced isomerization of 3
Light Time (min) cis ratio (%) trans ratio (%)
Compound 3 (10 µM) in a mixture of water and MeOH (1%) was successively exposed to white light and to a 365 nm mercury lamp (0.5 mW/cm2). The cis-trans ratio was calculated from the peak areas in HPLC.
(§1) Table S3. Cis ratio and aqueous solubilization of 3 under UV irradiation, under visible light irradiation, and in […]
Shake UV light Visible light Dark time cis ratio Solubilized 3 cis ratio Solubilized 3 cis ratio Solubility (%) (µg/mL) (%) (µg/mL) (%) (µg/mL)
(§2) Compound 3 was shaken at 37 °C under UV irradiation, under visible light irradiation, and in the dark. UV irradiation was performed with a mercury lamp (0.5 mW/cm2). Cis ratio in the aqueous solution was evaluated from the peak areas in HPLC immediately after filtration.

[2] = LogPow by HPLC method (OECD 117); details: reversed-phase HPLC column (Inertsil ODS-4)
Description: Inc. Inertsil ODS-4 reversed-phase column, 5 µm, 4.6 mm x 150 mm) eluted with a mobile phase consisting of H2O and CH3CN (45: 55) at a flow rate of 1.0 mL/min, with UV monitoring at 300 (for 1) or 330 (for 2) nm, at 37 ° C. The dead time t0 was measured with thiourea as the unretained compound. Each measurement was performed in duplicate, and the mean retention time (tR) was used for further calculations. The capacity factor of each compound, k = ((tR – t0) / t0), was calculated by extrapolation of the line fitted on the measured log k values of CH3CN−aqueous mobile phase. For the reference substrates (acetanilide, methyl benzoate, toluene, 4-phenylphenol, benzyl benzoate, dibenzyl), the calculated log k values were plotted against logPow values, and the absolute calibration curve was determined (LogP = 2.8279 x (log k) + 1.6035, R2=0.98). The LogP values of tested compounds were calculated using a previously prepared calibration curve from the tR […]
We observed the azobenzene compound using an optical microscope (BX-51P, Olympus). Bright-field images were captured in the reflection mode. For investigation of the existence of the polarization plane in the sample, the transmitted polarizing microscope mode under crossed-Nicol conditions was used. […] The intensity of illuminating UV light at the sample was monitored with an optical power meter […]

[3] = Aqueous solubilization in 1/15 M phosphate buffer (pH 7.4) under UV, visible light or dark, with cis ratio in solution by HPLC
Description: as §1, §2
Table S4. Aqueous solubilization and cis ratio of 3 under irradiation at various wavelengths through filters of […]
Illumination was performed with a xenon lamp using repeated cycles of irradiation and shaking (5000 flashes, then shaking for 10 sec) through filters of various bandwidths at room temperature (20-22 °C) for 1 h. The cis ratio in the aqueous solution was evaluated by HPLC immediately after filtration, based on peak area.
Table S5. Aqueous solubilization of 3 under UV irradiation at various intensity levels.
Sample irradiation was conducted using 365 nm LED light (max light intensity: 290 mW/cm2) at 37 °C for 1 […]
Sample irradiations were conducted with the white light through a filter cutting off wavelengths below 560 nm, or with 365 nm LED light (344 mW/cm2) at 37 °C for 1 h.
Table S7. Aqueous dissolution of UV-irradiated crystals of 3 measured in the dark, and the cis ratio contained […]
Crystals of 3 were irradiated with 365 nm LED light (344 mW/cm2) at 37 °C for 3 h.
The UV-irradiated crystals and unirradiated crystals were each shaken in phosphate buffer in the dark at 37 °C for 1 h.
Physicochemical properties […]
Compound 3 (about 0.2 mg) was ground and taken up in 1/15 M phosphate buffer (pH 7.4, 1.0 mL) in a 10 mL glass tube. The suspension was incubated under ultrasound irradiation for 10 min, and shaken in a temperature controllable incubator located in a dark room for the indicated time at the indicated temperature.
With shaking on a plate shaker, a sample was irradiated with a 365 nm mercury lamp (4 W, UVP compact […]
white LED light (5 W, Nikki Trading Corp., NLSS05BM, 68 and 54 mW/cm2 at 450 and 540 nm, respectively) through a filter cutting off wavelengths below 560 nm (Atto Corp. YA-3). Irradiation was done from the top of the sample glass tube. Then, the suspension was filtered through a Millipore Millex-LG (0.20 […]
For irradiation at various UV wavelengths, 3 (about 0.1 mg) was ground and taken up in 1/15 M phosphate buffer (pH 7.4, 0.2 mL) in a well of a 96-well white plate. Illumination over a range of wavelength from 355-540 nm was performed using a plate reader EnVision equipped with a xenon flash lamp (35 W, 500 Hz), with excitation filters of appropriate bandwidths.

aqueous solubilization under UV irradiation vs in the dark ([3]; UV 0.5 mW/cm2, 37 °C, 5 h)	increase of solubilization by UV irradiation ([3]; more intense UV irradiation (344 mW/cm2))	SMILES	solubility at 24 h [1]	chromatographic logP [2]	times more soluble than trans-2 ([1]; cis-1 vs trans-2)
–	–	COc1ccc(/C=C/c2ccc(OC)c(OC)c2)cc1OC [trans-2]	0.0475 µg/mL (≈ 0.158 µM)	3.2	–
–	–	COc1ccc(/C=C\c2ccc(OC)c(OC)c2)cc1OC [cis-1]	0.673 µg/mL (≈ 2.24 µM)	3.3	14 times
essentially the same	1.4 fold	O=C(O)c1cc(/N=N/c2ccc(S(=O)(=O)Nc3ccccn3)cc2)ccc1O [Compound 4, Sulfasalazine, reference compound]	–	–	–
